Measurements as given in publication PMC9405451, “Uptake and Immunomodulatory Properties of Betanin, Vulgaxanthin I and Indicaxanthin towards Caco-2 Intestinal Cells” (Antioxidants, 2022).

Columns and labels:
IL-6 = IL-6 mRNA level (qPCR) in cytokine-stimulated Caco-2 cells; format: cell-based, human; conditions: 10 μM co-treatment, 6 h, positive control (not shown)
Experimental: (§1) Confluent Caco-2 cells were stimulated with a cocktail of cytokines comprised of tumour necrosis factor-α (TNF-α, 20 ng mL^−1), interleukin-1β (IL-1β, 40 ng mL^−1), interferon-γ (IFN-γ, 10 ng mL^−1) and lipopolysaccharide (LPS, 100 ng mL^−1) in the presence or absence of BET, VUL and IND treatments (5–80 µM) for 6 h. With the completion of incubations, cells were washed with cold DPBS and lysed with TRIsure reagent (Scientific Laboratory Supplies Ltd.). Total RNA of cell samples was extracted in accordance with the manufacturer’s instructions. After resuspending the RNA pellets in DEPC water, concentration and quality were determined using the NanoQuant plate (Tecan Spark 10M plate reader) at 260 and 280 nm. Reverse transcription of RNA was achieved using the iScript™ cDNA Synthesis Kit (Bio-Rad). Transcription levels of target genes—interleukin 6 (IL-6), IL-8, COX-2, iNOS, NADPH oxidase 1 (NOX-1), NAD(P)H quinone dehydrogenase 1 (NQO-1), heme oxygenase 1 (HO-1), glutamate-cysteine ligase catalytic subunit (GCLC), glutathione peroxidase 1 (GPX-1), glutathione S-transferase 1 (GSTA-1) and GSTP-1 were evaluated using SybrGreen based reagent (SensiFast SYBR Green, SLS Ltd., Galveston, TX, USA) via real-time qPCR using StepOne Plus Real-Time PCR System (Applied Biosystems, Nottingham, UK). Primers of target genes were designed and blasted using the NCBI database, whose PCR product sizes were confirmed by 2% agarose gel electrophoresis. The list of primer sequences used in the study is presented in Supplemental Table S1. The calculation of target gene levels was based upon the Livak (2^−ΔΔCT) method with normalisation to the housekeeping gene, β-actin [31].

IL-8 = IL-8 mRNA level (qPCR) in cytokine-stimulated Caco-2 cells; format: cell-based, human; conditions: 10 μM co-treatment, 6 h, positive control (not shown)
Experimental: as §1

COc1cc(/C=C/C(=O)CC(=O)/C=C/c2ccc(O)c(OC)c2)ccc1O [curcumin, reference compound]
Effect on cytokine-induced IL-6 generation (IL-6): strongly suppressed | Effect on cytokine-induced IL-8 generation (IL-8): strongly suppressed
